Measurements from patent US6472384B1, “Antimicrobial compounds” (Sankyo Company, Limited, priority 1998, dated 2002).
Values after ≈ are worked out from the molar mass of the structure shown.

How the values were obtained:
[1] = system: Mycobacterium smegmatis SANK 75075; assay: Disk assay against Mycobacterium smegmatis; format: cell-based; conditions: Mycolicibacterium smegmatis, SANK75075, 40 μg of test substance per paper disk of 8 mm, read-out: inhibitory zone (circle) diameter
Text: Compound A-500359E, Compound A-500359F, the amide derivative of Compound A-500359F, Compound A-500359H, Compound A-500359J and Compound A-500359M-3 of the present invention thus available are novel compounds which have not been described in the literature. Their growth inhibitory activity against general gram positive bacteria or gram negative bacteria can be determined by the disk assay method using normal agar medium (product of Eiken Chemical) or heart infusion agar medium (product of Difco Laboratories). Growth inhibitory activity against Mycobacteria, gram positive bacteria belonging to the Actinonycetales, can be determined similarly on the above-described medium added further with glycerin.
So-called disk assay was conducted using 40 μg of a test substance per paper disk of 8 mm.
So-called Disk assay (“Experimental Agricultural Chemistry”. ed. by Agricultural Chemistry Class/Agriculture Dept./Tokyo Univ., 3rd edition, Volume II, published by Asakura Shoten in 1978) was conducted using 40 μg of a test substance per paper disk of 8 mm.

[2] = Solubility (physico-chemical properties); format: physicochemical
[3] = system: Mycobacterium smegmatis Strain SANK 75075; assay: Minimum inhibitory concentration against Mycobacterium smegmatis (agar plate dilution); format: cell-based; conditions: Mycolicibacterium smegmatis; Mycobacterium smegmatis SANK 75075; nutrient agar containing 5% glycerol; 37° C. for 18 hours
Experimental: The minimum inhibitory concentration of preferred compounds of the invention against Mycobacterium smegmatis Strain SANK 75075 was determined in accordance with the process described below. The concentration of the compound to be tested was set at four stages by four-fold dilution starting from 1000 μg/ml (1000 μg/ml, 250 μg/ml, 62 μg/ml and 15 μg/ml). A 1 ml portion of the diluted sample of each stage was poured into a Petri dish (“Terumo Petri dish”, 90×20 mm). A nutrient agar medium (9 ml, product of Eiken Chemical) containing 5% glycerol was added and they were mixed to prepare a plate medium. A test microorganism Mycobacterium smegmatis SANK 75075 was precultured overnight at 37° C. on a trypto-soy broth (T.S.B) medium (product of Eiken Chemical) containing 5% glycerol. On the testing day, the microorganism solution was diluted 100-fold with T.S.B. and one loopful of the diluted culture was streaked onto the plate medium. After cultivation at 37° C. for 18 hours, the minimum concentration (MIC) of the test substance inhibiting the growth of the microorganism was determined.

[4] = system: Mycobacterium avium Strain NIHJ1605; assay: Minimum inhibitory concentration against Mycobacterium avium (broth dilution); format: cell-based; conditions: NIHJ1605, 144 h; Mycobacterium avium NIHJ 1605; Middleblook 7H9 broth; aerobic culture at 37° C. for 6 days

Row | Solubility in chloroform [2] | Solubility in methanol [2] | Solubility in normal hexane [2] | Solubility in water [2] | MIC [3] [µg/mL] | MIC [4] [µg/mL] | SMILES | zone of inhibition at 40 µg/disc [1] [mm]
1 | – | – | – | – | 6.2 (≈ 7.54 µM) | – | CCCCCCCCCCCCCCCC(=O)O[C@@H]1[C@H](OC)[C@@H]([C@@H](O[C@H]2OC(C(=O)N[C@H]3CCC[C@@H](C)NC3=O)=C[C@H](O)[C@@H]2O)C(N)=O)O[C@H]1n1ccc(=O)[nH]c1=O [Exemp. Compound No. 11] | –
2 | – | – | – | – | 6.2 (≈ 7.83 µM) | – | CO[C@H]1[C@@H](OC(=O)CC(c2ccccc2)c2ccccc2)[C@H](n2ccc(=O)[nH]c2=O)O[C@@H]1[C@@H](O[C@H]1OC(C(=O)N[C@H]2CCC[C@@H](C)NC2=O)=C[C@H](O)[C@@H]1O)C(N)=O [Exemp. Compound No. 21] | –
3 | – | – | – | – | 6.2 (≈ 7.67 µM) | – | CCCCCCCCCCCCCCCC(=O)O[C@@H]1[C@H](OC)[C@@H]([C@@H](O[C@H]2OC(C(=O)N[C@H]3CCCCNC3=O)=C[C@H](O)[C@@H]2O)C(N)=O)O[C@H]1n1ccc(=O)[nH]c1=O [Exemp. Compound No. 53] | –
4 | – | – | – | – | 1.5 (≈ 1.86 µM) | – | CCCCCCCCCCCCCCCC(=O)O[C@H]1C=C(C(=O)N[C@H]2CCCCNC2=O)O[C@H](O[C@@H](C(N)=O)[C@H]2O[C@@H](n3ccc(=O)[nH]c3=O)[C@H](O)[C@@H]2OC)[C@H]1O [Exemp. Compound No. 135] | –
5 | – | – | – | – | 3.1 (≈ 3.9 µM) | – | CCCCCCC(=O)O[C@@H]1[C@@H](O[C@@H](C(N)=O)[C@H]2O[C@@H](n3ccc(=O)[nH]c3=O)[C@H](O)[C@@H]2OC)OC(C(=O)N[C@H]2CCCCNC2=O)=C[C@@H]1OC(=O)CCCCCC [Exemp. Compound No. 280] | –
6 | insoluble | slightly soluble | insoluble | soluble | – | – | COC1C(O)C(n2ccc(=O)[nH]c2=O)OC1C(OC1OC(C(N)=O)=CC(O)C1O)C(N)=O (stereo not drawn) [amide derivative of compound A-500359F] | 12

The remaining lines, values behind:

Row | SMILES | Solubility in chloroform [2] | Solubility in methanol [2] | Solubility in normal hexane [2] | Solubility in water [2] | MIC [3] [µg/mL] | MIC [4] [µg/mL] | zone of inhibition at 40 µg/disc [1] [mm]
7 | COC(=O)C1=CC(O)C(O)C(OC(C(N)=O)C2OC(n3ccc(=O)[nH]c3=O)C(O)C2OC)O1 (stereo not drawn) [A-500359E] | insoluble | slightly soluble | insoluble | soluble | – | – | 12
8 | COC1C(O)C(n2ccc(=O)[nH]c2=O)OC1C(OC1OC(C(=O)O)=CC(O)C1O)C(N)=O (stereo not drawn) [A-500359F] | insoluble | slightly soluble | insoluble | soluble | – | – | –
9 | NC(=O)C(OC1OC(C(=O)O)=CC(O)C1O)C1OC(n2ccc(=O)[nH]c2=O)C(O)C1O (stereo not drawn) [A-500359H] | insoluble | slightly soluble | insoluble | soluble | – | – | –
10 | NC(=O)C(OC1OC(C(=O)O)C(O)C(O)C1O)C1OC(n2ccc(=O)[nH]c2=O)C(O)C1O (stereo not drawn) [A-500359J] | insoluble | slightly soluble | insoluble | soluble | – | – | –
11 | C=CCC(NC(=O)C1=CC(O)C(O)C(OC(C(N)=O)C2OC(n3ccc(=O)[nH]c3=O)C(O)C2OC)O1)C(=O)O (stereo not drawn) [A-500359M-3] | insoluble | soluble | insoluble | soluble | – | – | 12
12 | CO[C@H]1[C@@H](O)[C@H](n2ccc(=O)[nH]c2=O)O[C@@H]1[C@@H](O[C@H]1OC(C(=O)N[C@H]2CCCCNC2=O)=C[C@H](O)[C@@H]1O)C(N)=O [Capuramycin, capuramycin, reference compound] | – | – | – | – | 12.5 (≈ 21.9 µM) | 8 (≈ 14 µM) | –
13 | CCCCCCCCC(=O)O[C@@H]1[C@H](OC)[C@@H]([C@@H](O[C@H]2OC(C(=O)N[C@H]3CCC[C@@H](C)NC3=O)=C[C@H](O)[C@@H]2O)C(N)=O)O[C@H]1n1ccc(=O)[nH]c1=O [Exemp. Compound No. 6] | – | – | – | – | 3.1 (≈ 4.28 µM) | – | –
14 | CCCCCCCCCC(=O)O[C@@H]1[C@H](OC)[C@@H]([C@@H](O[C@H]2OC(C(=O)N[C@H]3CCC[C@@H](C)NC3=O)=C[C@H](O)[C@@H]2O)C(N)=O)O[C@H]1n1ccc(=O)[nH]c1=O [Exemp. Compound No. 7] | – | – | – | – | 6.2 (≈ 8.4 µM) | – | –
